Test results published in US8148391B2 (Cephalon, Inc., priority 2006, dated 2012).
Like-named read-outs stand apart in the source and are kept apart here. Each block holds one compound with its values, some of them ahead of it.

Tests used:
[1] = molecular target: T1, c-Met (cytoplasmic domain) (Homo sapiens, UniProt P08581); assay: c-Met Kinase Assay (same methods as for ALK, with modifications); format: biochemical
T1 construct: 10 ng/mL c-Met (cytoplasmic domain, Invitrogen Corporation #PV3143); purchased Invitrogen Corporation PV3143
Method in brief: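 Steps: coat wells with PLC-γ (10 μg/mL, Tris-buffered saline); add 10 ng/mL c-Met cytoplasmic domain to initiate; incubate 15 min, 37° C; detect phosphoproduct via Eu-N1 PT66 antibody.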

[2] = molecular target: T2, baculovirus-expressed ALK (Homo sapiens, UniProt Q9UM73); assay: ALK Kinase Assay (ELISA-type, time-resolved fluorescence); format: biochemical
T2 construct: host or cells: baculovirus expression system
Method in brief: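 Wells were coated with phospholipase C-γ at 10 μg/mL in Tris-buffered saline. Adding 30 ng/ml enzyme started the reaction, which ran at 37° C for 15 minutes before Eu-N1 PT66 antibody detection. Percent inhibition versus log10 concentration gave IC50 by variable-slope fit.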

[3] = c-Met kinase inhibition, 1 μM ATP (Km level), read-out: cMet Activity
[4] = ALK kinase inhibition, 1 μM ATP (Km level), read-out: ALK Activity
[5] = 1 μM ATP (Km level), 10 ng/mL c-Met, read-out: cMet Activity (c-Met kinase inhibition, IC50 class)
[6] = 1 μM ATP (Km level), 30 ng/ml ALK, 37° C., 15 minutes, read-out: ALK Activity (ALK kinase inhibition, IC50 class)
[7] = c-Met kinase inhibition, 1 μM ATP, read-out: cMet Activity
[8] = ALK kinase inhibition, 1 μM ATP, read-out: ALK Activity
[9] = 1 μM ATP (Km level), read-out: cMet Activity (c-Met Kinase Inhibition, IC50)
[10] = 1 μM ATP (Km level), read-out: ALK Activity (ALK Kinase Inhibition, IC50)

T1 sequence (P08581 956-1390 limits assumed): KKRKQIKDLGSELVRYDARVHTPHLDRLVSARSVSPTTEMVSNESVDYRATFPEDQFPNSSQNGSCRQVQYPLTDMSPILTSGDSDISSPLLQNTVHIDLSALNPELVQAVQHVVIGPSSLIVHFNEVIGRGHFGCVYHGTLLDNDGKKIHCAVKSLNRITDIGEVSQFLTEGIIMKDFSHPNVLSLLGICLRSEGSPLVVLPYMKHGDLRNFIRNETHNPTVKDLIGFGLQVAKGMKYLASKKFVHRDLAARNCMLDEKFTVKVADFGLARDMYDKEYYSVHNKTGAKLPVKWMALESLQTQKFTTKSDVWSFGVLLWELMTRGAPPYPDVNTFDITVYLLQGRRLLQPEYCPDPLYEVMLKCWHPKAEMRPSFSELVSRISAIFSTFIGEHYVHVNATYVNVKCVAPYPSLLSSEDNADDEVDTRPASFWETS
T2 sequence (Q9UM73 19-1620): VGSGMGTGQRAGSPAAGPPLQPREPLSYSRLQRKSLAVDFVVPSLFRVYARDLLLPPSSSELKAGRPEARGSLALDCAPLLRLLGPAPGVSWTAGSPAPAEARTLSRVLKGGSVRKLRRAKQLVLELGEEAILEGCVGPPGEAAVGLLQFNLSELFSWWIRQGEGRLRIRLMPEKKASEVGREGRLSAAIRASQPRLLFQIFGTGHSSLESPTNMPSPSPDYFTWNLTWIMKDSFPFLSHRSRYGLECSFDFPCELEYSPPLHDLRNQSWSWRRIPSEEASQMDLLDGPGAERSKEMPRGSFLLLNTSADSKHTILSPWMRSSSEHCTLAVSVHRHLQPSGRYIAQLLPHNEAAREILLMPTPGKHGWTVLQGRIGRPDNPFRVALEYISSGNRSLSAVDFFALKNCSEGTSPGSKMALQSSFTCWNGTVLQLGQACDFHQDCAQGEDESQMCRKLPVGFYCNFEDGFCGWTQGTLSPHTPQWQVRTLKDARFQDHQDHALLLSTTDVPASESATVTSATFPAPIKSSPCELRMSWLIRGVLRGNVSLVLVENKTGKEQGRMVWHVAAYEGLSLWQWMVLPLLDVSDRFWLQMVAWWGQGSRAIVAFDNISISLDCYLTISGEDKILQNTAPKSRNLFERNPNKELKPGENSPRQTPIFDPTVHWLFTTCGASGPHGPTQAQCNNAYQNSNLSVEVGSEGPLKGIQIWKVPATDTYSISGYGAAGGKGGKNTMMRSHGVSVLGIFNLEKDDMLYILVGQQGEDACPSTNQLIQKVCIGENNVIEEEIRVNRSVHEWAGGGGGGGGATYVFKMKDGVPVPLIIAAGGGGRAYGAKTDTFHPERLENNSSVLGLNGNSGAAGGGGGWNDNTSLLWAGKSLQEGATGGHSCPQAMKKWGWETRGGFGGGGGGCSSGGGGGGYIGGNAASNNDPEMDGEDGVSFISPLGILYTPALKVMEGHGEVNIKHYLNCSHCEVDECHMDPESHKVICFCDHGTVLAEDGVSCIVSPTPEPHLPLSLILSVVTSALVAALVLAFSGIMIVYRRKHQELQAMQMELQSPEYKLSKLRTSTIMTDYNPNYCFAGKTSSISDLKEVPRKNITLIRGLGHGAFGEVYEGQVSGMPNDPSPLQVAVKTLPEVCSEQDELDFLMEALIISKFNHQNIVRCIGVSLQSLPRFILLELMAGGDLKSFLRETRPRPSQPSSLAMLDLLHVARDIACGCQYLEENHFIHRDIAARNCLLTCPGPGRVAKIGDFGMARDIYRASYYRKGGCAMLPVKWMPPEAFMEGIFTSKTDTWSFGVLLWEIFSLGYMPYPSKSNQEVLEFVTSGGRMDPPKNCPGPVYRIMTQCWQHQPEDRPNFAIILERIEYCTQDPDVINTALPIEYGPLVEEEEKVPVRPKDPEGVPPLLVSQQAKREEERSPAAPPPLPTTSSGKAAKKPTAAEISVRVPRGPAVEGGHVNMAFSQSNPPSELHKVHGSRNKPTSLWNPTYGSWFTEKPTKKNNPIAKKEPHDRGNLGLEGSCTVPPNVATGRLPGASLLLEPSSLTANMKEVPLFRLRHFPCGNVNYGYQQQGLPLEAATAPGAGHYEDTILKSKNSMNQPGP

IC50 [1, 5]: 1000 to 10000 nM
IC50 [2, 6]: < 100 nM
Compound: COc1cc(N2CCOCC2)ccc1Nc1nc(Nc2ccc3c(c2)CCN(CC(=O)N(C)C)CC3)ncc1Cl [Example 1368, 2-{7-[5-Chloro-4-(2-methoxy-4-morpholin-4-yl-phenylamino)-pyrimidin-2-ylamino]-1,2,4,5-tetrahydro-benzo[d]azepin-3-yl}-N,N-dimethyl-acetamide]

IC50 [1, 7]: < 100 nM
IC50 [2, 8]: < 100 nM
Compound: CNC(=O)c1c(Cl)sc(Cl)c1Nc1nc(Nc2ccc3c(c2)CN(C)C(=O)CC3)ncc1Cl [Example 1807, 2,5-Dichloro-4-[5-chloro-2-(2-methyl-3-oxo-2,3,4,5-tetrahydro-1H-benzo[c]azepin-8-ylamino)-pyrimidin-4-ylamino]-thiophene-3-carboxylic acid methylamide]

IC50 [1, 3]: > 10000 nM
IC50 [2, 4]: < 100 nM
Compound: CCN1C(=O)CCCc2c1ccc(Nc1ncc(Cl)c(N[C@H]3[C@@H](C(N)=O)[C@@H]4C=C[C@H]3C4)n1)c2OC [Example 133, (1S,2S,3R,4R)-3-[5-Chloro-2-(1-ethyl-6-methoxy-2-oxo-2,3,4,5-tetrahydro-1H-benzo[b]azepin-7-ylamino)-pyrimidin-4-ylamino]-bicyclo[2.2.1]hept-5-ene-2-carboxylic acid amide]

IC50 [1, 9]: > 10000 nM
IC50 [2, 10]: < 100 nM
Compound: COc1cc2c(cc1Nc1ncc(Cl)c(Nc3ccc(N4CCN(C5CCN(C)CC5)CC4)cc3OC)n1)CCN(CC(=O)N(C)C)CC2 [Example 835, 2-[7-(5-Chloro-4-{2-methoxy-4-[4-(1-methyl-piperidin-4-yl)-piperazin-1-yl]-phenylamino}-pyrimidin-2-ylamino)-8-methoxy-1,2,4,5-tetrahydro-benzo[d]azepin-3-yl]-N,N-dimethyl-acetamide]

IC50 [1, 9]: > 10000 nM
IC50 [2, 10]: < 100 nM
Compound: COc1cc2c(cc1Nc1ncc(Cl)c(Nc3ccc(N4CCN(C)CC4)cc3OC)n1)CCN(CC(=O)N(C)C)CC2 [Example 770, 2-(7-{5-Chloro-4-[2-methoxy-4-(4-methyl-piperazin-1-yl)-phenylamino]-pyrimidin-2-ylamino}-8-methoxy-1,2,4,5-tetrahydro-benzo[d]azepin-3-yl)-N,N-dimethyl-acetamide]

IC50 [1, 9]: < 100 nM
IC50 [2, 10]: < 100 nM
Compound: CC(C)N1C(=O)CCCc2cc(Nc3ncc(Cl)c(NC4C5C=CC(C5)C4C(N)=O)n3)ccc21 (stereo not shown) [Example 669, 3-[5-Chloro-2-(1-isopropyl-2-oxo-2,3,4,5-tetrahydro-1H-benzo[b]azepin-7-ylamino)-pyrimidin-4-ylamino]-bicyclo[2.2.1]hept-5-ene-2-carboxylic acid amide]

IC50 [1, 7]: > 10000 nM
IC50 [2, 8]: 1000 to 10000 nM
Compound: CNC(=O)c1ccccc1Nc1nc(Nc2c(OC)ccc3c2CCOC(=O)N3C)ncc1Cl [Example 1517, 2-[5-Chloro-2-(2-methoxy-5-methyl-6-oxo-5,6,8,9-tetrahydro-7-oxa-5-aza-benzocyclohepten-1-ylamino)-pyrimidin-4-ylamino]-N-methyl-benzamide]

IC50 [1, 9]: > 10000 nM
IC50 [2, 10]: < 100 nM
Compound: COc1ccc(Nc2nc(Nc3cc4c(cc3OC)CCN(CC(=O)N(C)C)CC4)ncc2Cl)c(S(=O)(=O)N(C)C)c1 [Example 820, 2-{7-[5-Chloro-4-(2-dimethylsulfamoyl-4-methoxy-phenylamino)-pyrimidin-2-ylamino]-8-methoxy-1,2,4,5-tetrahydro-benzo[d]azepin-3-yl}-N,N-dimethyl-acetamide]

The remaining lines, values behind:

Compound: CNC(=O)c1ccccc1Nc1nc(Nc2ccc3c(c2)C2CCC3CN(CC#N)C2)ncc1Cl (stereo not shown) [Example 281, 2-[5-Chloro-2-(10-cyanomethyl-10-aza-tricyclo[6.3.2.0*2,7*]trideca-2,4,6-trien-4-ylamino)-pyrimidin-4-ylamino]-N-methyl-benzamide]
IC50 [1, 3]: < 100 nM
IC50 [2, 4]: < 100 nM

Compound: CNC(=O)c1cccc(F)c1Nc1nc(Nc2ccc3c(c2)CNC(=O)CCN3C(C)=O)ncc1Cl [Example 1224, 2-[2-(1-Acetyl-4-oxo-1,2,3,4,5,6-hexahydro-benzo[b][1,5]diazocin-8-ylamino)-5-chloro-pyrimidin-4-ylamino]-3-fluoro-N-methyl-benzamide]
IC50 [1, 5]: < 100 nM
IC50 [2, 6]: < 100 nM

Compound: CNC(=O)c1ccccc1Nc1nc(Nc2ccc3c(c2)CCN(CC(F)(F)F)CC3)ncc1Cl [Example 41, 2-{5-Chloro-2-[3-(2,2,2-trifluoro-ethyl)-2,3,4,5-tetrahydro-1H-benzo[d]azepin-7-ylamino]-pyrimidin-4-ylamino}-N-methyl-benzamide]
IC50 [1, 3]: < 100 nM
IC50 [2, 4]: < 100 nM

Compound: CCN1CC(=O)N(CC)c2cc(Nc3ncc(Cl)c(Nc4c(F)cccc4C(=O)NC)n3)ccc2C1 [Example 1870, 2-[5-Chloro-2-(1,4-diethyl-2-oxo-2,3,4,5-tetrahydro-1H-benzo[e][1,4]diazepin-8-ylamino)-pyrimidin-4-ylamino]-3-fluoro-N-methyl-benzamide]
IC50 [1, 7]: < 100 nM
IC50 [2, 8]: 100 to 1000 nM

Compound: CCN1CC2CC(C1)c1cc(Nc3ncc(Cl)c(NC4C5C=CC(C5)C4C(N)=O)n3)ccc12 (stereo not drawn) [Example 160, (2-exo,3-exo)-3-[5-Chloro-2-(10-ethyl-10-aza-tricyclo[6.3.1.0*2,7*]dodeca-2,4,6-trien-4-ylamino)-pyrimidin-4-ylamino]-bicyclo[2.2.1]hept-5-ene-2-carboxylic acid amide]
IC50 [1, 3]: 1000 to 10000 nM
IC50 [2, 4]: 100 to 1000 nM

Compound: CN(C)S(=O)(=O)c1ccccc1Nc1nc(Nc2ccc3c(c2)CCC(O)CC3)ncc1Cl (stereo not shown) [Example 1033, 2-[5-Chloro-2-(7-hydroxy-6,7,8,9-tetrahydro-5H-benzocyclohepten-2-ylamino)-pyrimidin-4-ylamino]-N,N-dimethyl-benzenesulfonamide]
IC50 [1, 5]: 100 to 1000 nM
IC50 [2, 6]: < 100 nM

Compound: CCN1C(=O)C(NC(=O)C(F)(F)F)CCc2c1ccc(Nc1ncc(Cl)c(Nc3ccccc3S(=O)(=O)C(C)C)n1)c2OC (stereo not shown) [Example 1333, N-(7-{5-Chloro-4-[2-(propane-2-sulfonyl)-phenylamino]-pyrimidin-2-ylamino}-1-ethyl-6-methoxy-2-oxo-2,3,4,5-tetrahydro-1H-benzo[b]azepin-3-yl)-2,2,2-trifluoro-acetamide]
IC50 [1, 5]: > 10000 nM
IC50 [2, 6]: < 100 nM

Compound: 2-[5-Chloro-2-(1,4-dimethyl-5-oxo-2,3,4,5-tetrahydro-1H-benzo[e][1,4]diazepin-8-ylamino)-pyrimidin-4-ylamino]-N-methylbenzamide [Example 416]
IC50 [1, 3]: < 100 nM
IC50 [2, 4]: < 100 nM

Compound: CCN1CCc2c(Nc3ncc(Cl)c(N[C@@H]4CCCC[C@H]4NS(C)(=O)=O)n3)ccc(OC)c2CC1 [Example 155, N-{(1R,2R)-2-[5-Chloro-2-(3-ethyl-9-methoxy-2,3,4,5-tetrahydro-1H-benzo[d]azepin-6-ylamino)-pyrimidin-4-ylamino]-cyclohexyl}-methanesulfonamide]
IC50 [1, 3]: > 10000 nM
IC50 [2, 4]: < 100 nM

Compound: CNC(=O)c1sc(C)c(C)c1Nc1nc(Nc2ccc3c(c2)CCOC(=O)N3C)ncc1Cl [Example 1772, 5-Methyl-3-[5-chloro-2-(5-methyl-6-oxo-5,6,8,9-tetrahydro-7-oxa-5-aza-benzocyclohepten-2-ylamino)-pyrimidin-4-ylamino]-4-methyl-thiophene-2-carboxylic acid methylamide]
IC50 [1, 7]: < 100 nM
IC50 [2, 8]: 1000 to 10000 nM

Compound: CCN1CCN(CC)c2cc(Nc3ncc(Cl)c(Nc4ccccc4OCC#N)n3)ccc2C1 [Example 731, {2-[5-Chloro-2-(1,4-diethyl-2,3,4,5-tetrahydro-1H-benzo[e][1,4]diazepin-8-ylamino)-pyrimidin-4-ylamino]-phenoxy}-acetonitrile]
IC50 [1, 9]: 100 to 1000 nM
IC50 [2, 10]: < 100 nM

Compound: O=C1CCCc2ccc(Nc3ncc(Cl)c(Nc4ccccc4S(=O)(=O)N4CCCC4)n3)cc2N1 [Example 1731, 8-{5-Chloro-4-[2-(pyrrolidine-1-sulfonyl)-phenylamino]-pyrimidin-2-ylamino}-1,3,4,5-tetrahydro-benzo[b]azepin-2-one]
IC50 [1, 7]: < 100 nM
IC50 [2, 8]: < 100 nM

Compound: CC1(C)CCC(=O)Nc2cc(Nc3ncc(Cl)c(Nc4ccccc4S(=O)(=O)N4CCC(O)C4)n3)ccc21 (stereo not shown) [Example 1621, 8-{5-Chloro-4-[2-(3-hydroxy-pyrrolidine-1-sulfonyl)-phenylamino]-pyrimidin-2-ylamino}-5,5-dimethyl-1,3,4,5-tetrahydro-benzo[b]azepin-2-one]
IC50 [1, 7]: < 100 nM
IC50 [2, 8]: < 100 nM

Compound: COc1cc2c(cc1Nc1ncc(Cl)c(Nc3ccccc3S(=O)(=O)N3CCCC3)n1)CCN(CCO)CC2 [Example 1543, 2-(7-{5-Chloro-4-[2-(pyrrolidine-1-sulfonyl)-phenylamino]-pyrimidin-2-ylamino}-8-methoxy-1,2,4,5-tetrahydro-3-benzazepin-3-yl)-ethanol]
IC50 [1, 7]: 1000 to 10000 nM
IC50 [2, 8]: < 100 nM

Compound: Cc1ccc(-c2ccccc2Nc2nc(Nc3ccc4c(c3)C(C)(C)CCC(=O)N4)ncc2Cl)nc1 [Example 1003, 7-{5-Chloro-4-[2-(5-methyl-pyridin-2-yl)-phenylamino]-pyrimidin-2-ylamino}-5,5-dimethyl-1,3,4,5-tetrahydro-benzo[b]azepin-2-one]
IC50 [1, 9]: > 10000 nM
IC50 [2, 10]: 1000 to 10000 nM
